Test results taken from patent US12012412B2, “Solid forms of pyrazolo[3,4-d]pyrimidine compounds” (Pfizer Inc., priority 2021, dated 2024).
Converted amounts (≈) assume the structure as drawn. Where two headings read alike, the source gives them in different places.

Columns and labels:
Format in all cases: physicochemical
[1] = 7-day stability assessment of Solid Form B; conditions: 7 days; for HPLC purity (% rel. Area): input purity 100%
Protocol: 15 mg of Solid Form B was weighed into 3×1.5 mL vials. • One vial was left uncapped, placed inside a scintillation vial and stored at ambient conditions (ca. 20° C.). • One vial was left uncapped and placed inside a scintillation vial. This was placed in a stability oven at 40° C./75% RH. • One vial was capped and placed inside a scintillation vial. This was placed inside an oven at 80° C. After 7 days the samples were removed from their respective conditions, analyzed by XRPD and submitted for HPLC analysis.

[2] = Dynamic vapour sorption (DVS) assessment of Solid Form B
[3] = VH-XRPD analysis of Solid Form B
Protocol: VH-XRPD analysis was carried out on a Philips X'Pert Pro Multipurpose diffractometer equipped with a humidity chamber. The samples were scanned between 4 and 35.99°2θ using Cu K radiation (α1λ=1.54060 Å; α2=1.54443 Å; β=1.39225 Å; α1:α2 ratio=0.5) running in Bragg-Brentano geometry (step size 0.008°2θ) using 40 kV/40 mA generator settings. Variable humidity XRPD was carried out using the following method: A diffractogram was collected once each targeted % RH was reached and after the reported time had elapsed (Table 14 below). After 20 hours at 2% RH, some P2O5 was introduced within the stage chamber with the aim of further dry the environment. The sample was kept at these conditions for further 16 hours, during which a diffractogram was collected ever hour.

[4] = Thermodynamic solubility assessment of Solid Form B; conditions: for solubility thermodynamic at 24 h: thermodynamic from solid; for solubility thermodynamic at 24 h / XRPD Pattern of residual solid: 24 hours
[5] = VT-XRPD analysis of Solid Form B
Protocol: VT-XRPD analysis was carried out on a Philips X'Pert Pro Multipurpose diffractometer equipped with a temperature chamber. The samples were scanned between 4 and 35.99°2θ using Cu K radiation (α1λ=1.54060 Å; α2=1.54443 Å; β=1.39225 Å; α1:α2 ratio=0.5) running in Bragg-Brentano geometry (step size 0.008°2θ) using 40 kV/40 mA generator settings. Solid Form B was analyzed by VT-XRPD to assess changes in form upon heating. The sample was heated at 10° C./min and diffraction pattern collected at various temperatures (based on TG/DSC data).

C[C@@H]1CN(Cc2ncccn2)C[C@H]1c1nc2c(cnn2C2CCOCC2)c(=O)[nH]1 [Solid Form B, 6-((3S,4S)-4-methyl-1-(pyrimidin-2-ylmethyl)pyrrolidin-3-yl)-1-(tetrahydro-2H-pyran-4-yl)-1,5-dihydro-4H-pyrazolo[3,4-d]pyrimidin-4-one]
Solid form after storage (XRPD) ([1]; 40° C./75% RH): retained | XRPD (form after storage) ([1]; 40° C./75% RH): Solid Form B | HPLC purity (% rel. Area) ([1]; 40° C./75% RH): 100 % rel. Area | Solid form after storage (XRPD) ([1]; 80° C.): converted to a mixture of Solid Form A and Solid Form C | HPLC purity (% rel. Area) ([1]; 80° C.): 100 % rel. Area | XRPD (form after storage) ([1]; Ambient Light): Solid Form B | HPLC purity (% rel. Area) ([1]; Ambient Light): 100 % rel. Area | Solid form after storage (XRPD) ([1]; ambient temperature (ca. 20° C.)): retained | Purity change (HPLC) ([1]; ambient, 40° C./75% RH and 80° C.): no drop in purity | Uptake (DVS) ([2]; at 80% RH): 4.3 wt. % | Mass loss on de-sorption/uptake on sorption (DVS) ([2]; between 0 and 10% RH): ca. 2.6 wt. % | Mass loss on de-sorption/uptake on sorption (DVS), water equivalents ([2]; between 0 and 10% RH): 0.6 eq. water | Uptake (DVS) ([2]; between 40 and 80% RH, first sorption cycle): 0.2 wt. % | XRPD form after DVS analysis ([2]; post DVS): consistent with Solid Form B with traces of Solid Form C | XRPD (form at variable humidity) ([3]; 2% RH, 0.5 hours): Solid Form B | XRPD (form at variable humidity) ([3]; 2% RH, 20 hours): Solid Form B | XRPD (form at variable humidity) ([3]; 10% RH, 1 hour): Solid Form B | XRPD (form at variable humidity) ([3]; 40% RH, 0 hours (start)): Solid Form B | XRPD (form at variable humidity) ([3]; 40% RH, 0.5 hours): Solid Form B | XRPD (form at variable humidity) ([3]; 90% RH, 0.5 hours): Solid Form B | Change in form under variable humidity (VH-XRPD) ([3]; variable % RH, down to 2% RH and with P2O5): no change in form | Solid form after solubility test (XRPD) ([4]; across the pH range, 25° C.): retained | solubility thermodynamic at 24 h ([4]; aqueous buffer, pH 4.5 buffer, 25° C., read-out: HPLC conc. (mg/mL), thermodynamic solubility): 162 mg/mL (≈ 411 mM) | solubility thermodynamic at 24 h ([4]; aqueous buffer, pH 6.8 buffer, 25° C., read-out: HPLC conc. (mg/mL), thermodynamic solubility): 21.8 mg/mL (≈ 55.1 mM) | solubility thermodynamic at 24 h ([4]; buffer, aqueous buffer, pH 4.5, 25° C., read-out: Thermodynamic solubility): > 150 mg/mL | XRPD Pattern of residual solid ([4]; pH 1.2 buffer, 25° C.): Solid Form B | XRPD Pattern of residual solid ([4]; pH 4.5 buffer, 25° C.): Solid Form B | XRPD Pattern of residual solid ([4]; pH 6.8 buffer, 25° C.): Solid Form B | solubility thermodynamic at 24 h ([4]; simulated gastric fluid, pH 1.2 buffer, 25° C., read-out: HPLC conc. (mg/mL), thermodynamic solubility): 46.7 mg/mL (≈ 118 mM) | XRPD (form observed on heating) ([5]; 30 °C, hold 0 mins (last step, after 135 °C)): Solid Form A | XRPD (form observed on heating) ([5]; 30 °C, hold 0 mins (start), heated at 10 °C/min): Solid Form B | XRPD (form observed on heating) ([5]; 85 °C, hold 0 mins): Solid Form C | XRPD (form observed on heating) ([5]; 85 °C, hold 5 mins): Solid Form C | Solid form observed upon heating (VT-XRPD) ([5]; 130° C.): mixture of Solid Form A and C | XRPD (form observed on heating) ([5]; 130 °C, hold 0 mins): Solid Form A/C | Solid form observed upon heating (VT-XRPD) ([5]; 135° C.): consistent with Solid Form A | XRPD (form observed on heating) ([5]; 135 °C, hold 0 mins): Solid Form A | XRPD (form observed on heating) ([5]; 135 °C, hold 10 mins): Solid Form A | Solid form observed upon heating (VT-XRPD) ([5]; heated to 85° C., 10° C./min): Solid Form C
